Data taken from patent US4175123A, “Amino-sugar derivatives, process for their preparation and pharmaceutical composition thereof” (Bayer Aktiengesellschaft, priority 1976, dated 1979).

How the values were obtained:
[1] = test system: small intestine of fasting male Wistar rats (glucose absorption); test: In vitro method for the inhibition of glucose absorption (small intestine rings, D-glucose-14C); parameters: species or system rat (male Wistar); details: Rattus norvegicus, 2 min; 10 mg/ml; 2 minutes at 37° C., pH 7.4, D-glucose-14C 10 mg/ml
Procedure: In vitro method for the inhibition of glucose absorption
The upper part of the small intestine of fasting male Wistar rats is folded over and cut into rings about 3 mm wide. 10 of these rings (~150 mg moist weight) are incubated for 2 minutes at 37° C. in 5 ml of Krebs-Ringer bicarbonate buffer (pH 7.4) with D-glucose-^14 C (U) (10 mg/ml, 0.2 μCi/ml), with the addition of the active compounds. The washed and dried-off intestine rings are weighted, dissolved in 5 ml of Digestin (Merck)/isopropanol (1:1) and the radioactivity absorbed in the tissue is determined in a liquid scintillation counter. All values are corrected using the radioactivity absorbed in the tissue as D-mannitol-1-^14 C.
In vitro inhibitions of the glucose absorption by some selected compounds (10 mg/ml): […]

glucosidase [2] = test: Sucrose feeding test: postprandial blood sugar after oral sucrose + glucosidase inhibitor in fasting rats; format: in vivo, rat
Procedure: (§1) The in vivo activity of the compound was tested on some examples using the experimental arrangement described in the following text.
(§2) Oral administration of starch or sucrose causes a rise in the blood sugar in warm-blooded animals, provided that the carbohydrates are enzymatically degraded in the small intestine to monosaccharides. The inhibition of their enzymatic hydrolysis by glucosidase inhibitors causes a reduced rise in the blood sugar.
(§3) In order to detect the action of glucosidase inhibitors, 6 fasting rats receive perorally, 1 g of broiled starch or 2.5 g of sucrose/kg in the form of an aqueous suspension or in the form of an aqueous solution (starch and sucrose control respectively). An equal number of rats receive the glucosidase inhibitor in the dose indicated, together with the same amount of the carbohydrate concerned. An equal volume of physiological sodium chloride solution is administered orally to a further six rats (control). After administration of the carbohydrate concerned±glucosidae inhibitor, the postprandial change in blood sugar is measured, at the times indicated, in blood from the postorbital venous plexus in an auto-analyser according to the method of W. S. Hoffmann [J biol. Chem 120, 51 (1937)].

glucosidase [3] = test: Starch feeding test: postprandial blood sugar after oral starch + glucosidase inhibitor in fasting rats; format: in vivo, rat; details: for Blood sugar ± standard deviation, 15 minutes: starch control 131 ± 7.2, fasting control 60 ± 4.2; for Blood sugar ± standard deviation, 30 minutes: starch control 113 ± 9.2, fasting control 62 ± 3.4
Procedure: as §1, §2, §3

[4] = molecular target: T1, intestinal disaccharidase complex (saccharase) (Sus scrofa, UniProt P56729); test: In vitro saccharase inhibition test; format: biochemical, pig; details: for specific inhibitory activity (saccharase inhibitor units per gram): pH 6.25, 37° C., 20 minutes, sucrose substrate
T1 construct: both subunits cut from one SI precursor
T1 sequence (P56729 with tags, fused parts or gaps): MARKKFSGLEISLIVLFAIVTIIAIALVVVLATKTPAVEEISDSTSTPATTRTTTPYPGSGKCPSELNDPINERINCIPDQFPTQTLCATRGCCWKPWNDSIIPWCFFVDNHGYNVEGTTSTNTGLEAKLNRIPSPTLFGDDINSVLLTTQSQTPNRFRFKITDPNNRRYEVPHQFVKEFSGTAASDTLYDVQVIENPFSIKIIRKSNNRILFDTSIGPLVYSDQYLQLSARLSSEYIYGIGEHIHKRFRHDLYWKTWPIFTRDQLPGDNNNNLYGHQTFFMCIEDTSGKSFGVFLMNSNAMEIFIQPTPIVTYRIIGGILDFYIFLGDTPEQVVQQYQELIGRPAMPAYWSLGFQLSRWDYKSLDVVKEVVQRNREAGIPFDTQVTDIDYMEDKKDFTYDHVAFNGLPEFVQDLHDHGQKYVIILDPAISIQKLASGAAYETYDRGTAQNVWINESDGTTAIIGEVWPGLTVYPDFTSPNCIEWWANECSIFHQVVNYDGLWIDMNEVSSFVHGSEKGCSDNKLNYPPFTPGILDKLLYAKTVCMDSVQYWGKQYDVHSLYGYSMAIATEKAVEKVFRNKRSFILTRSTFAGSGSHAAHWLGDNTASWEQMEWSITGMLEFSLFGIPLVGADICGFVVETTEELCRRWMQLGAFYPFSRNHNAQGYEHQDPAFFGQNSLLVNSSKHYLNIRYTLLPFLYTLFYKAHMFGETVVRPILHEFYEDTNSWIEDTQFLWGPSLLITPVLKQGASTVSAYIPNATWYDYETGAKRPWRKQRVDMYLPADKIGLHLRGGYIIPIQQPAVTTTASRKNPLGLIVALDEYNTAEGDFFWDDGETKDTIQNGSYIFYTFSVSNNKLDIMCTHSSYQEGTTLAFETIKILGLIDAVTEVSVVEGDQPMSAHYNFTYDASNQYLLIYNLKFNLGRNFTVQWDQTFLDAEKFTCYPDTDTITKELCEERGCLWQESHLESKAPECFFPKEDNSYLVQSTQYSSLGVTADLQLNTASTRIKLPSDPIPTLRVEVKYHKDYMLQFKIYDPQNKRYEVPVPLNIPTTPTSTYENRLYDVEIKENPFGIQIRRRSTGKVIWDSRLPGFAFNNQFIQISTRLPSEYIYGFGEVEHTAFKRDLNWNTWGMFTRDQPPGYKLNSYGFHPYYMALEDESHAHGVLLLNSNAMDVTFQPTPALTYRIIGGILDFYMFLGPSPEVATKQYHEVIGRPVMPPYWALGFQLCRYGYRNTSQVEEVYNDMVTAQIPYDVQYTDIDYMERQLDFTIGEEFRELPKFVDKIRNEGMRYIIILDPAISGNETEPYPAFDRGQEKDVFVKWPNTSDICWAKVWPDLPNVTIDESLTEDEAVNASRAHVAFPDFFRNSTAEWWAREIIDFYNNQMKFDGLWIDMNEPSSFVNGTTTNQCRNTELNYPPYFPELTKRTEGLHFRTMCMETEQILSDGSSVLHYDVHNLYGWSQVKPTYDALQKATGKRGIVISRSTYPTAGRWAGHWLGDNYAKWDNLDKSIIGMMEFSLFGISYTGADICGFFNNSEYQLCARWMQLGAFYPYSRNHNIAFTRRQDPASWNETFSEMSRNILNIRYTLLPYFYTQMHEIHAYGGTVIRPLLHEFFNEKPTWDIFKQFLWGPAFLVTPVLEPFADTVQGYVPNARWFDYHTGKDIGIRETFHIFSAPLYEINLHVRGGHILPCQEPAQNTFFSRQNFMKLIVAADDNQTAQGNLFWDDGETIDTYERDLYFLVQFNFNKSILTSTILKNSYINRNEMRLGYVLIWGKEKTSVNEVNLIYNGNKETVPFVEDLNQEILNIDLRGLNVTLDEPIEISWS
Source text: In vitro saccharase inhibition test
The in vitro saccharase inhibition test makes it possible to determined the enzyme inhibitory activity of a sample by comparing the activity of the solubilised intestinal disaccharidase complex in the presence of the inhibitor with its activity in the absence (so-called 100% value) of the inhibitor. A virtually glucose-free (<100 ppm) saccharose is used here as the substrate, which determines the specificity of the inhibition test; the enzyme activity determination is based on the colorometric determination of liberated glucose by means of glucoseoxydase, peroxydase and 2,2-azino-di-[3-ethyl-benzthiazoline-6-sulphonate] (=ABTS) as the chromogen.
A saccharase inhibitor unit (SIU) is defined as that inhibitory activity which reduces a given saccharolytic activity in a defined test batch by one unit (saccharase unit=SU); the saccharase unit is defined here as that enzyme activity which, under given conditions, in one minute splits 1 μmol of sucrose and thus leads to the liberation of 1 μmol each of glucose, which is determine in the test, and fructose, which is not detected in the test.
The intestinal disaccharidase complex is obtained from pig's small intestine mucosa by trypsin digestion, precipitation from 66% ethanol at -20° C., taking up of the precipitate in 100 mM phosphate buffer of pH 7.0 and concluding dialysis against the same buffer.
100 μl of a dilution of the intestinal disaccharidase complex in 0.1 M maleate buffer of pH 6.25 are added to 10 μl of a sample solution which is diluted so that the extinction of the test batch is at least 10%, but not more than 25%, below that of the 100% value, and the mixture is pre-incubated for 10 minutes at 37° C. The dilution of the disaccharidase complex is to be adjusted to an activity of 0.05 SU/ml. […] In order to develop the colour, the mixture is incubated for 30 minutes at 37° C., after which it is diluted with 2 ml of tris buffer and measured photometrically at 420 nm against a reagent blank (with enzyme but without sucrose). […]

[5] = 0.92 mg/kg perorally + 1 g starch/kg
[6] = 0.65 mg/kg perorally + 1 g starch/kg

C[C@H]1O[C@H](O[C@H]2[C@H](O)[C@@H](O)[C@@H](O[C@H]3[C@H](O)[C@@H](O)[C@H](Oc4cccc(C(=O)O)c4)O[C@@H]3CO)O[C@@H]2CO)[C@H](O)[C@@H](O)[C@@H]1N[C@H]1C=C(CO)[C@@H](O)[C@H](O)[C@H]1O [Example 1, 5, m-Carboxyphenyl-O-{C}-(1→4)-O-α-D-glcp-(1→4)-β-D- glucopyranoside]
inhibition at 10000 µg/mL [1]: > 50%

C[C@H]1O[C@H](O[C@H]2[C@H](O)[C@@H](O)[C@@H](O[C@H]3[C@H](O)[C@@H](O)[C@H](Oc4ccc(C(=O)O)cc4)O[C@@H]3CO)O[C@@H]2CO)[C@H](O)[C@@H](O)[C@@H]1N[C@H]1C=C(CO)[C@@H](O)[C@H](O)[C@H]1O [Example 1, 7, p-Carboxyphenyl-O-{C}-(1→4)-O-α-D-glcp-(1→4)-β-D- glucopyranoside]
Blood sugar ± standard deviation, 15 minutes (glucosidase [2]; 0.92 mg/kg perorally + 2.5 g sucrose/kg, sucrose control 128 ± 8.0, fasting control 60 ± 4.6): 110 ± 3.4 mg/dL
Blood sugar ± standard deviation, 30 minutes (glucosidase [2]; 0.92 mg/kg perorally + 2.5 g sucrose/kg, sucrose control 133 ± 8.7, fasting control 64 ± 3.7): 118 ± 14 mg/dL
Blood sugar ± standard deviation, 45 minutes (glucosidase [2]; 0.92 mg/kg perorally + 2.5 g sucrose/kg, sucrose control 134 ± 6.1, fasting control 73 ± 7.1): 112 ± 10 mg/dL
Blood sugar ± standard deviation, 60 minutes (glucosidase [2]; 0.92 mg/kg perorally + 2.5 g sucrose/kg, sucrose control 119 ± 10, fasting control 66 ± 4.2): 117 ± 9.0 mg/dL
inhibition at 10000 µg/mL [1]: 25 to 50%
Blood sugar ± standard deviation, 15 minutes (glucosidase [3]; [5]): 121 ± 7.7 mg/dL
Blood sugar ± standard deviation, 30 minutes (glucosidase [3]; [5]): 112 ± 4.3 mg/dL

C[C@H]1O[C@H](O[C@H]2[C@H](O)[C@@H](O)[C@@H](O[C@H]3[C@H](O)[C@@H](O)[C@H](Oc4ccc(O)cc4)O[C@@H]3CO)O[C@@H]2CO)[C@H](O)[C@@H](O)[C@@H]1N[C@H]1C=C(CO)[C@@H](O)[C@H](O)[C@H]1O [Example 1, 8, p-Hydroxyphenyl-O-{C}-(1→4)-O-α-D-glcp-(1→4)-β-D- glucopyranoside]
Blood sugar ± standard deviation, 15 minutes (glucosidase [2]; 0.65 mg/kg perorally + 2.5 g sucrose/kg, sucrose control 128 ± 8.0, fasting control 60 ± 4.6): 112 ± 3.1 mg/dL
Blood sugar ± standard deviation, 30 minutes (glucosidase [2]; 0.65 mg/kg perorally + 2.5 g sucrose/kg, sucrose control 133 ± 8.7, fasting control 64 ± 3.7): 114 ± 6.3 mg/dL
Blood sugar ± standard deviation, 45 minutes (glucosidase [2]; 0.65 mg/kg perorally + 2.5 g sucrose/kg, sucrose control 134 ± 6.1, fasting control 73 ± 7.1): 119 ± 9.4 mg/dL
Blood sugar ± standard deviation, 60 minutes (glucosidase [2]; 0.65 mg/kg perorally + 2.5 g sucrose/kg, sucrose control 119 ± 10, fasting control 66 ± 4.2): 112 ± 4.3 mg/dL
inhibition at 10000 µg/mL [1]: 25 to 50%
Blood sugar ± standard deviation, 15 minutes (glucosidase [3]; [6]): 112 ± 9.9 mg/dL
Blood sugar ± standard deviation, 30 minutes (glucosidase [3]; [6]): 109 ± 12 mg/dL

C[C@H]1O[C@H](O[C@H]2[C@H](O)[C@@H](O)[C@@H](O[C@H]3[C@H](O)[C@@H](O)[C@H](Oc4ccc(C(C)(C)C)cc4)O[C@@H]3CO)O[C@@H]2CO)[C@H](O)[C@@H](O)[C@@H]1N[C@H]1C=C(CO)[C@@H](O)[C@H](O)[C@H]1O [Example 1, 9, p-tert-Butylphenyl-O-{C}-(1→4)-O-α-D-glcp-(1→4)-β-D glucopyranoside]
Blood sugar ± standard deviation, 15 minutes (glucosidase [2]; 3.0 mg/kg perorally + 2.5 g sucrose/kg, sucrose control 134 ± 13, fasting control 71 ± 3.7): 85 ± 4.8 mg/dL
Blood sugar ± standard deviation, 30 minutes (glucosidase [2]; 3.0 mg/kg perorally + 2.5 g sucrose/kg, sucrose control 116 ± 20, fasting control 70 ± 5.3): 83 ± 7.9 mg/dL
Blood sugar ± standard deviation, 45 minutes (glucosidase [2]; 3.0 mg/kg perorally + 2.5 g sucrose/kg, sucrose control 125 ± 8.6, fasting control 77 ± 5.5): 88 ± 3.4 mg/dL
Blood sugar ± standard deviation, 60 minutes (glucosidase [2]; 3.0 mg/kg perorally + 2.5 g sucrose/kg, sucrose control 112 ± 15, fasting control 78 ± 7.3): 92 ± 9.4 mg/dL
inhibition at 10000 µg/mL [1]: > 50%

CCCCCCCCCCCCCCCCO[C@@H]1O[C@H](CO)[C@@H](O[C@H]2O[C@H](CO)[C@@H](O[C@H]3O[C@H](C)[C@@H](N[C@H]4C=C(CO)[C@@H](O)[C@H](O)[C@H]4O)[C@H](O)[C@H]3O)[C@H](O)[C@H]2O)[C@H](O)[C@H]1O [Example 4, 18, n-Hexadecyl-O-{C}-(1→4)-O-α-D-glcp-(1→4)-β-D-glucopyranoside]
inhibition at 10000 µg/mL [1]: > 50%

C[C@H]1O[C@H](O[C@H]2[C@H](O)[C@@H](O)[C@@H](O[C@H]3[C@H](O)[C@@H](O)C(O)O[C@@H]3CO)O[C@@H]2CO)[C@H](O)[C@@H](O)[C@@H]1N[C@H]1C=C(CO)[C@@H](O)[C@H](O)[C@H]1O (stereo partly drawn) [compound of the formula I (page 2) with m=0 and n=2]
specific inhibitory activity (saccharase inhibitor units per gram) [4]: 68,000 SIU/g

C[C@H]1O[C@H](O[C@H]2[C@H](O)[C@@H](O)[C@@H](O[C@H]3[C@H](O)[C@@H](O)C(O)O[C@@H]3CO)O[C@@H]2CO)[C@H](O)[C@@H](O)[C@@H]1N[C@H]1C=C(CO)[C@@H](O)[C@H](O)[C@H]1O (stereo partly drawn) [compound with P+q=2]
specific inhibitory activity (saccharase inhibitor units per gram) [4]: 65,000 SIU/g

C[C@H]1O[C@H](O[C@H]2[C@H](O)[C@@H](O)[C@@H](O[C@H]3[C@H](O)[C@@H](O)[C@@H](O[C@H]4[C@H](O)[C@@H](O)C(O)O[C@@H]4CO)O[C@@H]3CO)O[C@@H]2CO)[C@H](O)[C@@H](O)[C@@H]1N[C@H]1C=C(CO)[C@@H](O)[C@H](O)[C@H]1O (stereo partly drawn) [isomers with p=0 and q=3]
in vitro sucrose inhibitory activity ([4]; isolated isomer): 19,000 SIU/g
